The target in data set [1] is human JAK1 (a.a. 837-1142) (Homo sapiens (Human), UniProt P23458). Briefly: In vitro JAK kinase assay (HTRF), JAK1. Type of data set: biochemical. As to conditions: 1 mM ATP. As to the method: The catalytic activity of JAK1, JAK2 or JAK3 was assayed by measuring the phosphorylation of a biotinylated peptide. The phosphorylated peptide was detected by homogenous time resolved fluorescence (HTRF). […] Reactions are carried out at room temperature for 1 hour and then stopped with 20 μL 45 mM EDTA, 300 nM SA-APC, 6 nM Eu-Py20 in assay buffer (Perkin Elmer, Boston, Mass.). Binding to the Europium labeled antibody takes place for 40 minutes and HTRF signal was measured on a Fusion plate reader (Perkin Elmer, Boston, Mass.).
In general terms: Time-resolved FRET reads energy transfer from a long-lived donor to a nearby acceptor.

Data set [2] relates to patients with plaque psoriasis. Briefly: Clinical study in patients with plaque psoriasis (sPGA, safety). Type of data set: in vivo, human. On the procedure: (§1) The systemic effects of Compound 1 have been studied in the auto-immune diseases RA and Ps. Inhibition of phosphorylation of STAT3 following stimulation with IL-6, a marker of AK1 inhibition, and TPO, a marker of JAK2 inhibition was measured in both studies. In patients with Ps doses of 100 mg QD, 200 mg QD, 200 mg BID, and 600 mg QD were studied.

Data set [3] in a line: Ex vivo colon permeation study (Ussing diffusion chamber / tube), LSC. As to conditions: healthy and UC colon, 100 and 1000 nM, 1 h; LLOQ 2 times background (21 dpm). It is filed as in vitro ADME, human. On the procedure:
Methods: Compound 1 concentrations in plasma and feces (colonic surrogate) were determined following a single sustained release 25 mg oral dose (see, e.g., Example B, 25 mg SR composition). Compound 1 concentrations in plasma following a single 100 mg dose were also determined in a separate study (see, e.g., Example C for measuring concentrations of Compound 1 in plasma). Ex vivo study: Colon tissue samples from healthy and UC subjects (2/group) were mounted on a vertical Ussing diffusion chamber. [^14C]Compound 1 was applied to the apical side of the chamber at 100 and 1000 nM and incubated for 1 h. Samples were collected from the donor and receiver sides for determination of Compound 1 concentration. The colonic tissue was snap frozen for quantitative autoradiography.
A small piece of two colon samples from two healthy and UC subjects (total eight samples) were provided by Analytical Biological Services Inc. (Wilmington, Del.) and stored at −70° C. until use.
Dose formulations, i.e., 100 nM and 1000 nM, were prepared on the day of the experiment for all tissues in the study. [^14C]Compound 1 (1.06 mg) was dissolved in dimethyl sulfoxide (DMSO; 1.514 mL) to produce a 1 mM stock solution (0.7 mg/mL). […]
[^14C]Compound 1 concentrations in both donor and receiver sides were analyzed by LSC. The lower limit of quantitation (LLOQ) was determined as 2 times the background (21 dpm).

Data set [4] has as its system IL-6-induced STAT3 phosphorylation. Briefly: Ex vivo IL-6-induced STAT3 phosphorylation in dosed patients (marker of JAK1 inhibition). Also on record: species or system human. As to conditions: 100 mg QD to 600 mg QD. On the procedure:
To assess the inhibitory activity of Compound 1 in serum-rich media, e.g., plasma or whole blood, the assay is conducted using whole blood; briefly, the whole blood sample is stimulated with IL-6 and levels of phosphorylated STAT3 are determined. This assay can be conducted either in vitro (human blood samples are spiked with Compound 1) or ex vivo (whole blood samples collected from human subjects dosed with Compound 1).
as §1

This is an account of results in US11596632B2, “JAK1 pathway inhibitors for the treatment of gastrointestinal disease” (Incyte Corporation, priority 2018, dated 2023).

pIC50: −log10 of the molar value.

Chain of human JAK1 (a.a. 837-1142) (P23458 837-1142): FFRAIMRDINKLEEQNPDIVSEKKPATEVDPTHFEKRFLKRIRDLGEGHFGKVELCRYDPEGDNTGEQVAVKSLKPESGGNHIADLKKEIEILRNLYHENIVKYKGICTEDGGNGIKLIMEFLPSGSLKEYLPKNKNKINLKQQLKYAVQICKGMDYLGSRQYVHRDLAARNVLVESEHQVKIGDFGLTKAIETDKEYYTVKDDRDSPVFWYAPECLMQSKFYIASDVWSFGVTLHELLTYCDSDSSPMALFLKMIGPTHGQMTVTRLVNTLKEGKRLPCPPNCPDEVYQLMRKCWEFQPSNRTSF

In the case of `N#CCC1(n2cc(-c3ncnc4[nH]ccc34)cn2)CN(C2CCN(C(=O)c3ccnc(C(F)(F)F)c3F)CC2)C1` [Compound 1, {1-{1-[3-Fluoro-2-(trifluoromethyl)isonicotinoyl]piperidin-4-yl}-3-[4-(7H-pyrrolo[2,3-d]pyrimidin-4-yl)-1H-pyrazol-1-yl]azetidin-3-yl}acetonitrile], the pIC50 in data set [1] was over 8.00. Also, the “mean change from baseline sPGA at Day 28, dose relation” value in data set [2] (100 mg QD, 200 mg QD, 200 mg BID, 600 mg QD) was “dose-dependent response”. For the same compound, the “Day 28 sPGA score, Mean (SD)” value in data set [2] (100 mg QD, n=9) is recorded as 2.6 (1.01); in data set [2] (200 mg BID, n=9), 2.0 (1.00); in data set [2] (200 mg QD, n=9), 2.3 (1.00); in data set [2] (600 mg QD, n=11), 1.8 (0.98). Besides, the “Day 28 sPGA score, Median” value in data set [2] (100 mg QD, n=9) is 2.0; in data set [2] (200 mg BID, n=9), 2.0; in data set [2] (200 mg QD, n=9), 2.0; in data set [2] (600 mg QD, n=11), 2.0. For the same compound, the “Percent change from baseline in sPGA score at Day 28, Median” value in data set [2] (100 mg QD, n=9) is recorded as −33.3%; in data set [2] (200 mg BID, n=9) it was −33.3%; in data set [2] (200 mg QD, n=9), −33.3%; in data set [2] (600 mg QD, n=11), −33.3%. The “Percent change from baseline in sPGA score at Day 28, Mean (SD)” value is listed as −22.2 (23.57) Percent in data set [2] (100 mg QD, n=9, p=0.270 vs placebo); −35.2 (33.79) Percent in data set [2] (200 mg BID, n=9, p=0.053 vs placebo); −29.4 (31.14) Percent in data set [2] (200 mg QD, n=9, p=0.118 vs placebo); −42.4 (26.21) Percent in data set [2] (600 mg QD, n=11, p=0.003 vs placebo). In addition, the “change from baseline in sPGA, clinical meaning” value in data set [2] (200 mg BID (p=0.053) and 600 mg QD (p=0.003)) is “clinically meaningful changes from baseline”. The neutropenia result in data set [2] (psoriasis patients) was “No neutropenia was noted”. For the same compound, the “radioactivity / concentration in basolateral side (receiver compartment)” value in data set [3] is “no Compound 1 related radioactivity was detected from the receiver side”. In addition, the “inhibition of IL-6 induced pSTAT3” value in data set [4] (RA patients, Cycle 1 Day 15) is listed as “general trend of dose-dependent inhibition of IL-6 induced pSTAT3”. Further, the “inhibition of pSTAT3 in response to IL-6 stimulation ex vivo” value in data set [4] (psoriasis patients) is listed as “concentration dependent inhibition of pSTAT3”.

The pIC50 is −log10 of the IC50, conventionally taken in molar units. Low readings indicate a high IC50, high ones a low IC50.
